Measurements taken from patent US9157908B2, “Chitosan-alginate scaffold cell culture system and related methods” (University of Washington through its Center for …, priority 2011, dated 2015).
Like-named read-outs stand apart in the source and are kept apart here.

Experiments:
[1] = test system: PLC/PRF/5 (PLC) cells; assay: Cellular response to doxorubicin, cell viability by Alamar Blue assay; type: cell-based, human; settings: 72 hours post treatment
Procedure: (§1) Proliferation of cells cultured on 2D wells, Matrigel matrix, and CA scaffolds was determined using the Alamar Blue assay following the manufacturer's protocol. Briefly, cells cultured on 2D wells and 3D scaffolds were washed with D-PBS before adding 1 mL of Alamar Blue solution (10% Alamar Blue in fully supplemented phenol red free DMEM or MEM) to each well.
(§2) For human hepatocellular carcinoma cells, after 2 hrs the Alamar Blue solution was transferred to a 96-well plate to obtain fluorescent values on a SpectraMax M2 microplate reader (Molecular Devices, Sunnyvale, Calif.) at 550 nm excitation, 590 nm emission. Standard curves were generated by seeding cells counted using a hemocytometer onto cell culture materials in triplicate, and performing Alamar Blue assay to generate a plot of linear regression of fluorescent values vs. cell number for each material. The cell number in an experimental sample was calculated based on the standard curve. No background fluorescence was generated by CA scaffolds. Cells were again washed with D-PBS to remove Alamar Blue solution and fresh fully-supplemented media were added to each well.
(§3) For human hepatocellular carcinoma cell-containing scaffolds, after 10 days of culture, media from cell cultures were replaced with 1 mL fully supplemented cell culture media containing various concentrations of doxorubicin. Cells were induced with doxorubicin containing media for 24 h, after which media was replaced with standard fully supplemented cell culture media. Cell viability was assessed using the Alamar Blue assay following the manufacturer's protocol as described above. LD50 was estimated via a polynomial approximation.

[2] = test system: HepG2 cells; assay: as above; type: cell-based, human; settings: for LD50 for doxorubicin: 72 hours post treatment; for viability at 1 µM: Homo sapiens, read-out: viability relative to untreated cells
Procedure: as §1, §2, §3

[3] = cited from earlier work

COc1cccc2c1C(=O)c1c(O)c3c(c(O)c1C2=O)C[C@@](O)(C(=O)CO)C[C@@H]3O[C@H]1C[C@H](N)[C@H](O)[C@H](C)O1 [doxorubicin]
LD50 of doxorubicin ([1]; PLC cells CA cultured): 4 ± 1.4 µM | LD50 of doxorubicin ([1]; PLC cells Matrigel cultured): 3 ± 1.1 µM | LD50 of doxorubicin ([1]; PLC cells cultured on 2D surfaces): 0.2 ± 0.13 µM | LD50 for doxorubicin ([2]; HepG2 cells cultured in 2D substrate): 0.45 ± 0.18 µM | LD50 for doxorubicin ([2]; HepG2 cells in CA): 13 ± 1.7 µM | LD50 for doxorubicin ([2]; HepG2 cells in Matrigel): 7 ± 2.2 µM | viability at 1 µM ([2]; HepG2, 48 h): 86.7 ± 2.4% | viability at 1 µM ([2]; HepG2, 72 h): 88.6 ± 2.75% | clearance from plasma ([3]; 48 hours post treatment): nearly complete clearance | peak plasma concentration ([3]; standard dosing schemes, minutes after treatment): approximately 15 μM
